Assay results as given in paper PMC8880039, “Kinetic and Molecular Docking Studies to Determine the Effect of Inhibitors on the Activity and Structure of Fused G6PD::6PGL Protein from Trichomonas vaginalis” (Molecules, 2022).

molecular target: recombinant human G6PD (HsG6PD) (Homo sapiens, UniProt P11413); assay: Inhibition of recombinant human G6PD by the selected compounds; assay type: biochemical; settings: compound 400 μM
Source text: (§1) Here, we tested an in-house library of 55 compounds with some structural similarity to the previously reported molecules by Preuss et al.. […] In addition, we tested these synthetic compounds as potential recombinant human G6PD (HsG6PD) protein inhibitors. We observed that synthetic compounds, such as JMM-2, CNZ-3, CNZ-7, and CNZ-8, inhibited the fused TvG6PD::6PGL and the HsG6PD enzymes. For example, JMM-2 inhibited both enzymes by 81%, and CNZ-3 inhibited their catalytic activity by around 90%. Conversely, six of them, JMM-3, CNZ-16, CNZ-17, MCC-7, CMC-1, and TDA-5, inhibited the fused TvG6PD::6PGL enzyme activity in a more significant proportion regarding HsG6PD. […] The selective inhibition over the fused TvG6PD::6PGL enzyme may help improve the rational design of new drugs against this parasite without affecting the activity of HsG6PD.

Chain of recombinant human G6PD (HsG6PD) (P11413 whole entry, the tested form may be a part): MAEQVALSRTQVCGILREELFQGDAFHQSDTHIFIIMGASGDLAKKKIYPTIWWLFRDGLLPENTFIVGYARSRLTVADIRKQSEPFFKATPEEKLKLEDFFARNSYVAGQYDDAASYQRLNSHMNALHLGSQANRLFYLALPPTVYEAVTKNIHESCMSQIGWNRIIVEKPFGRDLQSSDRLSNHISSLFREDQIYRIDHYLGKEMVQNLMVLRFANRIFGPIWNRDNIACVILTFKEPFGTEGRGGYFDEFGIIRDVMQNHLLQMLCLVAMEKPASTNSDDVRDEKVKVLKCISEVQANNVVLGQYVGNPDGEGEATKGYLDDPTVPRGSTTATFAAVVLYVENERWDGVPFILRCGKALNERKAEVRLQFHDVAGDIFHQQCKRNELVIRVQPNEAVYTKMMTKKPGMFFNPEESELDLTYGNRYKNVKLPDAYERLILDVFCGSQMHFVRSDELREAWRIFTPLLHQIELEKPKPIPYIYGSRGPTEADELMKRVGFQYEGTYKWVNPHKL

Structure (SMILES) | inhibition at 400 µM [%]
COc1ccc(NC(=O)Nc2ncc([N+](=O)[O-])s2)cc1 [CNZ-17] | 0
O=C(COc1ccc(/C=C2\SC(=O)NC2=O)cc1)NC1CCN(Cc2ccccc2)CC1 [MCC-7] | 11
O=C(Nc1ccc(Cl)cc1)Nc1ncc([N+](=O)[O-])s1 [CNZ-3] | ~90

molecular target: T1, fused TvG6PD::6PGL enzyme (Trichomonas vaginalis, UniProt A2EC78); assay: Orthogonal assay: IC50 by residual activity of TvG6PD::6PGL; assay type: biochemical; settings: not given
T1 sequence (A2EC78 entry or part of it): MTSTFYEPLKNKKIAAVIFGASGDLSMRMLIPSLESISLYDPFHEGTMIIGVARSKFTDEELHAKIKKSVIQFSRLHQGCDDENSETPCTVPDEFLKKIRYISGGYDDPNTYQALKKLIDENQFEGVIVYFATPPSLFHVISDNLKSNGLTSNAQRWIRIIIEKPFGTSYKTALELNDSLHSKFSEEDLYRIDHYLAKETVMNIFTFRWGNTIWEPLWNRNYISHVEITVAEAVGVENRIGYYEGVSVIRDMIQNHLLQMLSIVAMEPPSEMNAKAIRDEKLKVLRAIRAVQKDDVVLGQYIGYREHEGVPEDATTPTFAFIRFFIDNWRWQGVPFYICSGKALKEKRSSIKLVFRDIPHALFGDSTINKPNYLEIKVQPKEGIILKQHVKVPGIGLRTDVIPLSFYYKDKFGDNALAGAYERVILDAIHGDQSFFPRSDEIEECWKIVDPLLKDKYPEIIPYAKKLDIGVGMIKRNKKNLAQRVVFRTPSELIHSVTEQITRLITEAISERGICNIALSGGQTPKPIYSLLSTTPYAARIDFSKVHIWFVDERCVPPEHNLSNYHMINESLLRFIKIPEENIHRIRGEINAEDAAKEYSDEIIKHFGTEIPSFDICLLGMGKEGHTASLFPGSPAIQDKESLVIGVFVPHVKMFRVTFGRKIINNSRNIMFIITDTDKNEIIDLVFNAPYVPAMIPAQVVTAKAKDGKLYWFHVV
Method: Figure 2 Inactivation of the TvG6PD::6PGL enzyme with CNZ-3, MCC-7, JMM-3, and CNZ-17. The protein was adjusted at 0.2 mg/mL and incubated with increasing concentrations of each compound (0–800 μM) for 2 h at 37 °C. The IC50 values were determined by plotting the residual activity of the fused TvG6PD::6PGL enzyme versus compound concentrations. The assays were carried out in triplicate, and the data represent the mean ± standard error.
The compound concentration at which the enzyme loses 50% of its initial activity (IC50) was determined according to Hernández-Ochoa et al.. The G6PD::6PGL protein was adjusted to a 0.2 mg/mL concentration and incubated for 2 h at 37 °C, with increasing concentrations from 0 to 800 µM of the selected synthetic hit compounds. Then, the residual activity was measured, as mentioned above.

Structure (SMILES) | IC50 [µM]
COc1ccc(NC(=O)Nc2ncc([N+](=O)[O-])s2)cc1 [CNZ-17] | 356
O=C(COc1ccc(/C=C2\SC(=O)NC2=O)cc1)NC1CCN(Cc2ccccc2)CC1 [MCC-7] | 260
O=C(Nc1ccc(Cl)cc1)Nc1ncc([N+](=O)[O-])s1 [CNZ-3] | 93
COc1cc(CCC(=O)O)ccc1OCc1ccc(-c2ccccc2C#N)cc1 [JMM-3] | 155

molecular target: T1, fused TvG6PD::6PGL enzyme; assay: Time-course inactivation, second-order rate constant (k2); assay type: biochemical; settings: read-out: second-order rate constant of inactivation (k2)
Method: To determine the enzyme–inhibitor complex formation rate for each synthetic compound, we first calculated the pseudo-first-order inactivation constants (k1) by measuring the initial velocities at five fixed concentrations, at intervals between 0 and 120 min. […] We observed single-exponential decays of time-course inactivation for all the compounds examined in this study (Figure 3A,C,E,G). Additionally, as the synthetic compounds’ concentrations increased, the enzyme lost catalytic activity in a shorter incubation time; in contrast, the enzymatic activity of enzymes without compounds remained intact. The k1 values for each compound were calculated and plotted against their concentrations, and a linear behavior was obtained and fitted with the linear equation (Figure 3B,D,F,H). The calculated k2 values for JMM-3, CNZ-3, CNZ-17, and MCC-7 were: 0.33, 0.66, 0.38, and 0.26 M^−1 s^−1, respectively. It is important to mention that CNZ-3 formed the enzyme–inhibitor complex faster (k2 value of 0.66 M^−1 s^−1), regarding the CNZ-17 compound. This difference in the affinity to form the enzyme–inhibitor complex may be due to the p-chlorine moiety present in CNZ-3, unlike CNZ-17, which has a methoxy group in the same position.
Figure 3 Inactivation of fused G6PD::6PGL enzyme by chemical compounds. […] We obtained second-order rate constant values of inactivation (k2) of each of (B) JMM-3, (D) CNZ-3, (F) CNZ-17, and (H) CCM-7 by fitting the calculated k1 value versus the concentration of the compound. […] TEXT PRINTED IN THE PICTURE: (B) JMM-3: k2= 0.33 (M^-1* s^-1) | (D) CNZ-3: k2 = 0.66 (M^-1* s^-1) | (F) CNZ-17: k2 = 0.38 (M^-1* s^-1) | (H) MCC-7: k2 = 0.26 (M^-1* s^-1) DOUBTS OF THE COPYIST ABOUT THIS PICTURE: CNZ-3, k2: small print, 0.66 could be 0.68 or 0.86 / CNZ-17, k2: small print, 0.38 could be 0.36 or 0.88 / MCC-7, k2: small print, 0.26 could be 0.28; subscript of k not clearly readable / Panels D, F, H: the sign between M^-1 and s^-1 (asterisk) is not clearly readable
Second-order rate constants of inactivation (k2) were used to determine the inactivation rate of a chemical compound and the formation of the enzyme–inhibitor complex. Therefore, pseudo-first-order rate constants (k1) were determined for the recombinant G6PD::6PGL, adjusted at 0.2 mg/mL, and incubated with four different fixed concentrations of each compound at 37 °C. At the indicated times, a sample was withdrawn, and the residual activity was measured. First, we calculated the pseudo-first-order rate constants (k1) by fitting the residual activities data using a monoexponential decay equation: AR=A0 e^−kt , where AR is the residual activity at time t, A0 is the activity at the initial time, and k is the pseudo-first-order inactivation constant (min^−1). […]

Structure (SMILES) | kinact/KI [M⁻¹ s⁻¹]
COc1ccc(NC(=O)Nc2ncc([N+](=O)[O-])s2)cc1 [CNZ-17] | 0.38
O=C(COc1ccc(/C=C2\SC(=O)NC2=O)cc1)NC1CCN(Cc2ccccc2)CC1 [MCC-7] | 0.26
O=C(Nc1ccc(Cl)cc1)Nc1ncc([N+](=O)[O-])s1 [CNZ-3] | 0.66
COc1cc(CCC(=O)O)ccc1OCc1ccc(-c2ccccc2C#N)cc1 [JMM-3] | 0.33

molecular target: T1, fused TvG6PD::6PGL enzyme; assay: Determination of inhibition type (double reciprocal plots); assay type: biochemical; settings: G6P varied, NADP+ saturating; Lineweaver–Burk
Source text: Figure 4 Determination of inhibition type of selected compounds. Lineweaver–Burk plots for the JMM-3, CNZ-3, CNZ-17, and MCC-7 compounds with G6P (A,C,E,G) or NADP^+ (B,D,F,H) substrates. The data represent the mean ± of three independent experiments, and standard errors were lower than 5%. […] Only the inhibition type (a class) is printed as a plot label, and it is uncertain whether that counts as a result. The concentrations in the plot legends stand alone and were left out.
To determine the inhibition mechanism of the four selected hit compounds over the T. vaginalis-fused G6PD::6PGL protein, we monitored the initial velocities in the presence of two fixed concentrations of each of the inhibitory compounds. The initial velocities were determined at different substrate concentrations (from 0 to 140 µM). […] Subsequently, the initial velocities for each physiological substrate (G6P and NADP^+) were analyzed using the double reciprocal plot method.

Structure (SMILES) | inhibition type for G6P substrate
COc1ccc(NC(=O)Nc2ncc([N+](=O)[O-])s2)cc1 [CNZ-17] | uncompetitive-type inhibition
O=C(COc1ccc(/C=C2\SC(=O)NC2=O)cc1)NC1CCN(Cc2ccccc2)CC1 [MCC-7] | non-competitive-type inhibition
O=C(Nc1ccc(Cl)cc1)Nc1ncc([N+](=O)[O-])s1 [CNZ-3] | noncompetitive-type inhibition
COc1cc(CCC(=O)O)ccc1OCc1ccc(-c2ccccc2C#N)cc1 [JMM-3] | uncompetitive-type inhibition

same assay, conditions: NADP+ varied, G6P saturating; Lineweaver–Burk

Structure (SMILES) | inhibition type for NADP+ substrate
COc1ccc(NC(=O)Nc2ncc([N+](=O)[O-])s2)cc1 [CNZ-17] | uncompetitive-type inhibition
O=C(COc1ccc(/C=C2\SC(=O)NC2=O)cc1)NC1CCN(Cc2ccccc2)CC1 [MCC-7] | uncompetitive type
O=C(Nc1ccc(Cl)cc1)Nc1ncc([N+](=O)[O-])s1 [CNZ-3] | competitive-type inhibition
COc1cc(CCC(=O)O)ccc1OCc1ccc(-c2ccccc2C#N)cc1 [JMM-3] | uncompetitive-type inhibition

molecular target: T1, fused TvG6PD::6PGL enzyme; assay: Screening of in-house library for inhibition of fused TvG6PD::6PGL catalytic activity; assay type: biochemical; settings: read-out: G6PD::6PGL Inhibition (%), compound 400 μM, 0.2 mg/mL enzyme, 2 h at 37 °C
Source text: as §1
We tested an in-house library of 55 chemical compounds synthesized in the Medicinal Chemistry Laboratory from Facultad de Farmacia, Universidad Autónoma del Estado de Morelos. In-house libraries are advantageous in the discovery of novel bioactive small molecules. […] Subsequently, the residual activity was measured using a standard reaction mixture (1 mM G6P, 0.2 mM NADP^+, 0.1 mM Tris-HCl, and one mM MgCl2, pH 8.0). […]

Structure (SMILES) | inhibition at 400 µM [%]
COc1ccc(NC(=O)Nc2ncc([N+](=O)[O-])s2)cc1 [CNZ-17] | > 50
COc1cc(CCC(=O)O)ccc1OCc1ccc(-c2ccccc2C#N)cc1 [JMM-3] | > 50
